Measurements as given in ChEMBL document CHEMBL3507680, “University of Dundee, Gates Library screen for HepG2 cell viability”.

Assay: Human HepG2 cell viability assay in 384 well format
Assay type: toxicity, cell-based
Parameters: dose 125 nL, time 70.5 hour; concentration not given beside the values
Conditions: HepG2 cells, read-out: Inhibition

Compound | cytotoxicity at 70.5 h
COc1ncnc2c1CCN(C(=O)Cc1cccc(F)c1)CC2 | -3.34%
N#Cc1ccc2c(c1)CN(C(=O)C1CC=CC1)C2c1cnco1 (stereo not given) | -6.37%
Cc1cnc(N2CCC3(CC2)CCN(c2cncnc2)C3=O)nc1 | 8.5%
CCN(C)C(=O)c1cc(-c2ccn(C(C)C)n2)n2ccccc12 | -3.51%
O=C(NCc1cccs1)c1nc2c(o1)CN(c1ncccn1)C2 | -6.55%
O=C(c1cnccn1)N1CCC2(CC1)C(=O)NCC2c1ccccc1 (stereo not given) | -6.72%
CN(C)CCNC(=O)c1nc2c(o1)CN(c1ncccn1)C2 | -3.63%
Cc1ccc(N2CCC3(CCC(=O)N3)CC2)nn1 | -10%
CN1C(=O)CC2(CCN(S(=O)(=O)C3CC3)CC2)c2ccccc21 | 7.41%
COCC1CN(C(=O)Cc2ccccn2)Cc2ncn(C)c21 (stereo not given) | -2.47%
O=C(NCc1cccnc1)C1=NOC2(CCN(C3CCOCC3)C2)C1 (stereo not given) | -11.3%
CC(C)N(C)C(=O)C1=NOC2(CCN(C(=O)NCc3cccnc3)C2)C1 (stereo not given) | -9.91%
CCOCC1CN(C(=O)c2ccoc2)Cc2nn(C)cc21 (stereo not given) | -6.29%
O=C([C@@H]1CC[C@@H]2[C@@H](CCN2Cc2ccncc2)O1)N1CCCCO1 | -6.89%
CNC(=O)c1cc2c(nc1NC(C)C)CCNCC2 | 6.54%
CCOCc1ncn2c1CN(S(=O)(=O)c1ccc(F)cc1)CC2 | 9.27%
COCc1ncn2c1CN(S(=O)(=O)c1cccc(OC)c1)CC2 | 8.77%
c1ccc(-c2ncc3c(n2)C2(CCN(c4ncccn4)C2)COC3)cc1 (stereo not given) | -2.35%
O=C(Nc1ccccc1)C1CN(Cc2nccs2)CC12CCOCC2 (stereo not given) | 10%
O=C(c1ncccn1)N1C[C@@H]2COC[C@]2(c2nnc(C3CC3)o2)C1 | 9.47%
COCc1ncn2c1CN(S(=O)(=O)c1cccc(F)c1)CC2 | -8.14%
COCCO[C@@H]1C[C@H]2CN(C(=O)c3cccnc3)CCN2C1 | -6.81%

Compound | cytotoxicity at 70.5 h
CS(=O)(=O)N1CCC2(COCc3cnc(-c4ccccc4)nc32)C1 (stereo not given) | -10.2%
Cc1noc(C)c1CN1CC2(CCN(C(=O)c3cccn3C)C2)CC1=O (stereo not given) | -8.3%
Cc1ncnc2c1CCN(C(=O)c1cccnc1)CC2 | -6.81%
Cc1ccc(CN2CCC3(CC(C(=O)NCC4CC4)=NO3)C2)s1 (stereo not given) | -8.89%
CCN(CC)CC1CN(Cc2c(C)noc2C)Cc2nccn2C1 (stereo not given) | -4.28%
Cc1noc(C)c1CN1CC2(CCN(C(=O)c3ccc[nH]3)C2)CC1=O (stereo not given) | -6.16%
O=C(NCC1CC1)C1=NOC2(CCN(Cc3ccsc3)C2)C1 (stereo not given) | -7.31%
O=C(CC1CC1)N1CCC2(CC1)CC(Oc1ccccc1)CO2 (stereo not given) | -4.92%
N#Cc1cccc(CN2CCC3(CC(C(=O)NCC4CC4)=NO3)C2)c1 (stereo not given) | -4.48%
Cc1noc(C)c1C(=O)N1CCC2(CC1)CC(Oc1ccccc1)CO2 (stereo not given) | -3.84%
Cc1ccc(C(=O)N2CCc3ncnc(C)c3CC2)cn1 | -4.87%
CS(=O)(=O)Nc1nn(Cc2ccc(F)cc2)cc1Br | -3.65%
CCOc1cccc(C(=O)Nc2ccn(CC)n2)c1 | -19.9%
O=C(CCn1cc(Cl)cn1)Nc1ncccn1 | -4.36%
CCCN1CCN(C(=O)c2ccn(COc3ccc(F)cc3)n2)CC1 | -3.36%
O=C(c1ccn(COc2ccc(F)cc2)n1)N1CCCCCC1 | -3.63%
Cc1cc(NC(=O)C(C)Oc2ccc3c(c2)OCO3)no1 (stereo not given) | -6.37%
Cc1nn(CC(=O)Nc2ccon2)c(C)c1Br | -11.8%
CCC/N=c1/c(NC(=O)NCCCOC)c(O)oc2ccccc12 | 29.3%
CCn1nccc1CNC(=O)CCC1CCCC1 | 18.7%
CCCn1nccc1C(=O)Nc1ncc(C)s1 | -11.3%
CCN(CC)CCCNC(=O)c1nn(CC)cc1Cl | 2.52%

Compound | cytotoxicity at 70.5 h
CCN(CC)CCCNC(=O)C(C)n1cc(Br)cn1 (stereo not given) | -1.37%
NC(=O)C1CCN(C(=O)c2ccc(Cn3cc(Br)cn3)cc2)CC1 | 16%
O=C(Nc1cnn(Cc2ccc(F)cc2Cl)c1)C1CC1 | -3.99%
CSc1[nH]nc(NC(=O)c2ccncc2)c1C#N | -1.59%
CCN(Cc1nonc1C)C(=O)Cn1nc(C(F)(F)F)cc1C1CC1 | -5.16%
CCN(Cc1nonc1C)C(=O)Cn1nc(C(F)(F)F)cc1C | -9.27%
CC(=O)c1ccc(NC(=O)C(C)Cn2cc(Br)cn2)cc1 (stereo not given) | -5.47%
CC(C)(C)NC(=O)c1ccn(COc2ccccc2Cl)n1 | -5.39%
Cc1nnsc1C(=O)N1CCC(c2nc3ccccc3[nH]2)CC1 | 24%
CCCN(C(=O)COCC)c1cccc(C)c1 | -4.58%
COCCNCc1ccc(OCC(=O)NC(C)(C)C)cc1 | 19.6%
CC(C(=O)N1CCN(c2ccc(F)cc2)CC1)n1cc(Br)cn1 (stereo not given) | -8.98%
COCC(=O)Nc1cnn(COc2ccc(F)cc2Cl)c1 | 2.16%
CC(NC(=O)c1ccc(Cl)cc1)c1nnc(SCC(N)=O)n1C (stereo not given) | -8%
Cn1cc(I)c(C(=O)NCCCn2cc(Br)cn2)n1 | 0.223%
Cn1cc(Br)c(C(=O)NCCCn2cc(Br)cn2)n1 | 6.5%
CCn1ncc(CN2CCN(C(=O)Cn3cc(Br)c(C)n3)CC2)c1C | -9.19%
Cc1nn(Cc2ccc(C(=O)NCCCN3CCCC3=O)o2)c(C)c1Cl | -10.6%
Cc1cc(NC(=O)C(C)Cn2cc(Br)cn2)no1 (stereo not given) | 1.29%
CC(C)(C)NC(=O)c1ccn(COc2c(Cl)cccc2Cl)n1 | -0.674%
O=C(c1ccnn1COc1ccc(Cl)cc1)N1CCSCC1 | -11%
COCC(=O)N1CCC2(CC1)NC(=O)c1ccccc12 | 31.8%

Compound | cytotoxicity at 70.5 h
O=C(NCc1cncc2c1CCN(Cc1ccc(F)cc1)C2)C1CC1 | -8.1%
O=C(NCc1cncc2c1CCN(Cc1ccoc1)C2)C1CC1 | -0.887%
O=C(NCc1cncc2c1CCN(CC1CCOC1)C2)c1ccno1 (stereo not given) | -6.93%
COCCN1CCO[C@@H]2CN(C(=O)COc3ccc(C)cc3)C[C@@H]2C1 | -8.74%
Cc1ccc(CN2CC[C@@H](O)[C@@H]2Cc2ccccc2)o1 | 34%
Cn1cncc1CNC1CC2(CCN(S(C)(=O)=O)CC2)c2ccccc21 (stereo not given) | -2.27%
O=C(c1cccnc1)N1C[C@@H](c2ccccc2)[C@@]2(CCNC2=O)C1 | 7.29%
CCN1CCC2(CC1)CC(NC(=O)c1ccnnc1)c1ccccc12 (stereo not given) | 7.06%
CO[C@@H]1CCN(Cc2ccc(C)o2)[C@H]1Cc1ccccc1 | -1.2%
Cc1cc(CN2C[C@@H](C)[C@@]3(CCN(C)C3=O)C2)oc1C | -5.99%
Cc1ccc(N2CCN(Cc3ccccc3)C3(CCNCC3)C2=O)cn1 | -4.83%
CC(C)NC(=O)C1c2c(ncn2C(C)C)CCN1Cc1ccccc1 (stereo not given) | -3.52%
O=C([C@H]1CC[C@@H]2[C@@H](CCN2Cc2ccsc2)O1)N1CCOCC1 | -6.53%
c1cnc(N2CCCC3(COCCN(CC4CC4)C3)C2)nc1 (stereo not given) | -10%
Cn1cc(C(=O)N[C@H]2CN(Cc3nccs3)[C@@H]3CCCO[C@H]23)cn1 | -8.57%
O=C([C@H]1CC[C@@H]2[C@@H](CCN2Cc2ccc(F)cc2)O1)N1CCCO1 | -9.2%
Cn1cccc1C(=O)N1CCO[C@H]2[C@H](OCc3cccnc3)CC[C@@H]21 | -7.88%
O=C(NCc1cccs1)c1nc2c(o1)CN(C(=O)c1cccnc1)C2 | 7.5%
CCN(C)c1ncnc2c1CCN(C(=O)c1ccoc1C)CC2 | -10.9%
CCN(C)c1ncnc2c1CCN(C(=O)c1ccsc1)CC2 | -0.977%
CC(C)Nc1nc2c(cc1C(=O)NCC1CC1)CCN(S(C)(=O)=O)CC2 | -6.91%
O=C(NCc1ccco1)[C@H]1CC[C@@H]2[C@@H](CCN2Cc2nccs2)O1 | -4.65%

Compound | cytotoxicity at 70.5 h
O=C(c1cnccn1)N1CCN2C[C@H](OCc3ccccc3F)C[C@H]2C1 | -6.71%
O=C(NCc1ccco1)[C@@H]1CC[C@@H]2[C@@H](CCN2Cc2ccc(F)cc2)O1 | -5.82%
O=C(Nc1ccccc1)C1CN(Cc2ccco2)CC12CCOCC2 (stereo not given) | -10.6%
O=C(Nc1ccccc1)C1CN(Cc2ccsc2)CC12CCOCC2 (stereo not given) | -18.9%
COCc1ncn2c1CN(S(=O)(=O)Cc1ccc(C)cc1)CC2 | -10.2%
COCC1CN(Cc2csc(C)n2)Cc2nccn2C1 (stereo not given) | 2.98%
CS(=O)(=O)N1CCOCC2(CN(Cc3ccc(F)cc3)CCO2)C1 (stereo not given) | -3.17%
CN(C)c1ncc2c(n1)C1(CCN(Cc3ccccc3F)C1)COC2 (stereo not given) | -7.03%
CCn1ncc2c1C(COC)CN(S(=O)(=O)N(C)C)C2 (stereo not given) | -10.2%
COc1ccc(CC(=O)N2Cc3nccn3CC(CN(C)C)C2)cc1 (stereo not given) | 20.5%
Cc1ccc(CN2CCC3(CC2)CN(c2ccccc2)C(=O)CO3)o1 | 23.7%
COCCN1CCO[C@@H]2CN(Cc3cc(OC)cc(OC)c3)C[C@@H]2C1 | 36.9%
CN1CCN(Cc2ccncc2)C(=O)C12CCN(c1nccs1)CC2 | -2.86%
CN1CCN(C(=O)[C@H]2CC[C@@H]3[C@@H](CCN3Cc3ccsc3)O2)CC1 | -6.96%
CC(C)Nc1nc2c(cc1C(=O)NCC1CC1)CCN(CC1CC1)CC2 | 25.7%
CN(Cc1ccco1)C[C@@H]1OC[C@H]2CN(Cc3nccs3)CC[C@H]21 | 4.46%
CN(C)CC(=O)N1Cc2nnn(C)c2C(COCc2ccccn2)C1 (stereo not given) | 9.45%
Cc1cnc(N2CCN3C[C@H](OCc4cccc(C)n4)C[C@H]3C2)nc1 | 0.481%
COCCN1CCO[C@@H]2CN(Cc3ccccn3)C[C@@H]2C1 | 2.26%
c1cncc(CN2CCCC3(COCCN(c4cnccn4)C3)C2)c1 (stereo not given) | -5.18%
Cc1ncccc1NC(=O)[C@@H]1CC[C@@H]2[C@@H](CCN2Cc2cnn(C)c2)O1 | 13.5%
CN(Cc1ccco1)C[C@H]1OC[C@@H]2CCN(Cc3ccccn3)C[C@@H]21 | -8.48%
